Measurements published in patent US10669290B2, “Beta-lactamase inhibitors” (priority 2012, dated 2020).
Like-named read-outs stand apart in the source and are kept apart here.

How the values were obtained:
Type in all cases: cell-based
E. coli ESBL4 CTX-M-15 = assay: Broth microdilution MIC, E. coli ESBL4; details: Escherichia coli
Excerpt: (§1) To determine the ability of test compounds to potentiate the inhibition of the growth of bacterial strains that produce beta-lactamase enzymes, classic cell based broth microdilution MIC assays were employed. Six bacteria strains producing beta-lactamase enzymes were used: E. coli expressing the Class A Extended Spectrum Beta-Lactamase (ESBL) CTX-M-15, E. cloacae expressing the Class C P99, K. pneumoniae expressing the Class A carbapenemase KPC-2, P. aeruginosa expressing the Class B carbapenemase VIM-2, K. pneumoniae expressing the class A carbapenemase KPC-2 and the class B carbapenemase VIM-4, and S. aureus producing the Class A penicillinase PC-1. The assay was conducted in Cation Adjusted Mueller Hinton Broth (CAMHB, BD #212322, BD Diagnostic Systems, Sparks, Md.). Bacteria strains were grown for 3-5 hours in CAMBH broth. Test compounds were added to a microtiter plate in 2-fold serial dilutions in CAMHB in a final concentration range of 32 μg/mL to 0.25 μg/ml. An overlay of CAMHB containing a Beta-lactam was added to the compounds at a final static concentration of 4 μg/ml. […] In addition to the titration of test compounds the MICs of a panel of control beta-lactams is also tested to ensure the strains are behaving consistently from test to test. Once the test compound and antibiotics are added the plates can be inoculated according to CLSI broth microdilution method. After inoculation the plates are incubated for 16-20 hours at 37° C. then the Minimal Inhibitory Concentration (MIC) of the test compound is determined visually.
(§2) Using the methodology described above in EXAMPLE III, exemplary compounds for Formula I or Formula Ia were evaluated for their ability to inhibit the growth of β-lactamase producing bacteria in the presence of a β-lactam antibiotic.

K.P. A-1797 KPC-2 VIM-4 = assay: Broth microdilution MIC, K. pneumoniae A-1797; details: Klebsiella pneumoniae; fixed meropenem 4 μg/mL, CAMHB, 16-20 hours 37° C.; read-out: MIC of exemplary compounds in presence of fixed β-lactams, Fixed Mero, K.P. A-1797 KPC-2 VIM-4
Excerpt: as §1, §2

S. aureus MSSA-7 PC-1 = assay: Broth microdilution MIC, S. aureus MSSA-7; details: Staphylococcus aureus, fixed piperacillin 4 μg/mL, CAMHB, 16-20 hours 37° C., read-out: MIC of exemplary compounds in presence of fixed β-lactams, Fixed Pip, S. aureus MSSA-7 PC-1
Excerpt: as §1, §2

E. cl 144200 p99 AmpC = assay: Broth microdilution MIC, E. cloacae 144200; details: Enterobacter cloacae
Excerpt: as §1, §2

P. aerug. Ps296 VIM-2 = assay: Broth microdilution MIC, P. aeruginosa Ps296; details: Pseudomonas aeruginosa; fixed meropenem 4 μg/mL, CAMHB, 16-20 hours 37° C.; read-out: MIC of exemplary compounds in presence of fixed β-lactams, Fixed Mero, P. aerug. Ps296 VIM-2
Excerpt: as §1, §2

K.P. 156319 KPC-3 = assay: Broth microdilution MIC, K. pneumoniae 156319; details: Klebsiella pneumoniae; fixed meropenem 4 μg/mL, CAMHB, 16-20 hours 37° C.; read-out: MIC of exemplary compounds in presence of fixed β-lactams, Fixed Mero, K.P. 156319 KPC-3
[1] = ESBL4CTXM15, fixed ceftazidime 4 μg/mL, CAMHB, 16-20 hours 37° C., read-out: MIC of exemplary compounds in presence of fixed β-lactams, Fixed CAZ, E. coli ESBL4 CTX-M-15
[2] = fixed ceftazidime 4 μg/mL, CAMHB, 16-20 hours 37° C., read-out: MIC of exemplary compounds in presence of fixed β-lactams, Fixed CAZ, E. cl 144200 p99 AmpC

Row | Compound | MIC (E. coli ESBL4 CTX-M-15; [1]) | MIC (K.P. A-1797 KPC-2 VIM-4) | MIC (S. aureus MSSA-7 PC-1) | MIC (E. cl 144200 p99 AmpC; [2]) | MIC (P. aerug. Ps296 VIM-2) | MIC (K.P. 156319 KPC-3) | MIC (E. coli ESBL4 CTX-M-15; ESBL4CTXM15, read-out: MIC alone) | MIC (E. cl 144200 p99 AmpC; read-out: MIC alone)
1 | O=C(CC1CCCCC1)N[C@H]1Cc2cccc(C(=O)O)c2OB1O [Example 31, (R)-3-(2-cyclohexylacetamido)-2-hydroxy-3,4-dihydro-2H-benzo[e][1,2]oxaborinine-8-carboxylic acid] | < 4 µg/mL | > 32 µg/mL | < 4 µg/mL | < 4 µg/mL | 8 to 32 µg/mL | 8 to 32 µg/mL |  | 
2 | CNCCN[C@H]1CC[C@H](CC(=O)N[C@H]2Cc3cccc(C(=O)O)c3OB2O)CC1 [Example 51, (R)-2-hydroxy-3-(2-(trans-4-(2-(methylamino)ethylamino)cyclohexyl)acetamido)-3,4-dihydro-2H-benzol[e][1,2]oxaborinine-8-carboxylic acid] | < 4 µg/mL | < 4 µg/mL | < 4 µg/mL | < 4 µg/mL | < 4 µg/mL | < 4 µg/mL |  | 
3 | N=C(N)N1CCC(CN[C@H]2CC[C@H](CC(=O)N[C@H]3Cc4cccc(C(=O)O)c4OB3O)CC2)CC1 [Example 34, (R)-3-(2-(trans-4-((1-carbamimidoylpiperidin-4-yl)methylamino)cyclohexyl)acetamido)-2-hydroxy-3,4-dihydro-2H-benzo[e][1,2]oxaborinine-8-carboxylic acid] | < 4 µg/mL | 8 to 32 µg/mL | < 4 µg/mL | < 4 µg/mL | < 4 µg/mL | < 4 µg/mL |  | 
4 | NCCNC(=O)NC1CC(CC(=O)N[C@H]2Cc3cccc(C(=O)O)c3OB2O)C1 (stereo partly drawn) [Example 58, (R)-3-(2-(3-(3-(2-aminoethyl)ureido)cyclobutyl)acetamido)-2-hydroxy-3,4-dihydro-2H-benzo[e][1,2]oxaborinine-8-carboxylic acid] | < 4 µg/mL | < 4 µg/mL | < 4 µg/mL | < 4 µg/mL | < 4 µg/mL | < 4 µg/mL |  | 
5 | NCC(N)[C@H]1CC[C@H](CC(=O)N[C@H]2Cc3cccc(C(=O)O)c3OB2O)CC1 (stereo partly drawn) [Example 77, (R)-3-(2-(trans-4-(1,2-diaminoethyl)cyclohexyl)acetamido)-2-hydroxy-3,4-dihydro-2H-benzo[e][1,2]oxaborinine-8-carboxylic acid] | < 4 µg/mL | 8 to 32 µg/mL | < 4 µg/mL | < 4 µg/mL | < 4 µg/mL | < 4 µg/mL |  | 
6 | CSCCN[C@H]1CC[C@H](CC(=O)N[C@H]2Cc3cccc(C(=O)O)c3OB2O)CC1 [Example 66, (R)-2-hydroxy-3-(2-(trans-4-(2-(methylthio)ethylamino)cyclohexyl)acetamido)-3,4-dihydro-2H-benzo[e][1,2]oxaborinine-8-carboxylic acid] | < 4 µg/mL | 8 to 32 µg/mL | < 4 µg/mL | < 4 µg/mL | 8 to 32 µg/mL | < 4 µg/mL |  | 
7 | NCC(=O)N[C@H]1CC[C@H](CC(=O)N[C@H]2Cc3cccc(C(=O)O)c3OB2O)CC1 [Example 68, (R)-3-(2-(trans-4-(2-aminoacetamido)cyclohexyl)acetamido)-2-hydroxy-3,4-dihydro-2H-benzol[e][1,2]oxaborinine-8-carboxylic acid] | < 4 µg/mL | 8 to 32 µg/mL | < 4 µg/mL | < 4 µg/mL | 8 to 32 µg/mL | < 4 µg/mL |  | 
8 | CN1CCN([C@H]2CC[C@H](CC(=O)N[C@H]3Cc4cccc(C(=O)O)c4OB3O)CC2)C1=N [Example 52, (R)-2-hydroxy-3-(2-(trans-4-(2-imino-3-methylimidazolidin-1-yl)cyclohexyl)acetamido)-3,4-dihydro-2H-benzo[e][1,2]oxaborinine-8-carboxylic acid] | < 4 µg/mL | > 32 µg/mL | < 4 µg/mL | < 4 µg/mL | > 32 µg/mL | 8 to 32 µg/mL |  | 
9 | CS(=O)(=O)NCCN[C@H]1CC[C@H](CC(=O)N[C@H]2Cc3cccc(C(=O)O)c3OB2O)CC1 [Example 49, (R)-2-hydroxy-3-(2-(trans-4-(2-(methylsulfonamido)ethylamino)cyclohexyl)acetamido)-3,4-dihydro-2H-benzo[e][1,2]oxaborinine-8-carboxylic acid] | < 4 µg/mL | 8 to 32 µg/mL | < 4 µg/mL | < 4 µg/mL | 8 to 32 µg/mL | < 4 µg/mL |  | 
10 | O=C(O)CN[C@H]1CC[C@H](CC(=O)N[C@H]2Cc3cccc(C(=O)O)c3OB2O)CC1 [Example 28, (R)-3-(2-(trans-4-(carboxymethylamino)cyclohexyl)acetamido)-2-hydroxy-3,4-dihydro-2H-benzo[e][1,2]oxaborinine-8-carboxylic acid] | < 4 µg/mL | > 32 µg/mL | < 4 µg/mL | < 4 µg/mL | 8 to 32 µg/mL | < 4 µg/mL |  | 
11 | NC[C@H](N)C(=O)N[C@H]1CC[C@H](CC(=O)N[C@H]2Cc3cccc(C(=O)O)c3OB2O)CC1 [Example 13, (R)-3-(2-(trans-4-((S)-2,3-diaminopropanamido)cyclohexyl)acetamido)-2-hydroxy-3,4-dihydro-2H-benzo[e][1,2]oxaborinine-8-carboxylic acid] | < 4 µg/mL | 8 to 32 µg/mL | < 4 µg/mL | < 4 µg/mL | < 4 µg/mL | 8 to 32 µg/mL |  | 
12 | CN(C)CCN[C@H]1CC[C@H](CC(=O)N[C@H]2Cc3cccc(C(=O)O)c3OB2O)CC1 [Example 79, (R)-3-(2-(trans-4-(2-(dimethylamino)ethylamino)cyclohexyl)acetamido)-2-hydroxy-3,4-dihydro-2H-benzo[e][1,2]oxaborinine-8-carboxylic acid] | < 4 µg/mL | < 4 µg/mL | < 4 µg/mL | < 4 µg/mL | < 4 µg/mL | < 4 µg/mL |  | 
13 | O=C(CC1CCC(N2CCOCC2)CC1)N[C@H]1Cc2cccc(C(=O)O)c2OB1O (stereo partly drawn) [Example 40, (R)-2-hydroxy-3-(2-(4-morpholinocyclohexyl)acetamido)-3,4-dihydro-2H-benzo[e][1,2]oxaborinine-8-carboxylic acid] | < 4 µg/mL | > 32 µg/mL | < 4 µg/mL | < 4 µg/mL | > 32 µg/mL | < 4 µg/mL |  | 
14 | COC(=O)NCCN[C@H]1CC[C@H](CC(=O)N[C@H]2Cc3cccc(C(=O)O)c3OB2O)CC1 [Example 54, (R)-2-hydroxy-3-(2-(trans-4-(2-(methoxycarbonylamino)ethylamino)cyclohexyl)acetamido)-3,4-dihydro-2H-benzo[e][1,2]oxaborinine-8-carboxylic acid] | < 4 µg/mL | 8 to 32 µg/mL | < 4 µg/mL | < 4 µg/mL | < 4 µg/mL | < 4 µg/mL |  | 
15 | NCC1CCC(CC(=O)N[C@H]2Cc3cccc(C(=O)O)c3OB2O)(C[N+](=O)[O-])CC1 (stereo partly drawn) [Example 12, (R)-3-(2-(4-(aminomethyl)-1-(nitromethyl)cyclohexyl)acetamido)-2-hydroxy-3,4-dihydro-2H-benzo[e][1,2]oxaborinine-8-carboxylic acid] | < 4 µg/mL | > 32 µg/mL |  | < 4 µg/mL | 8 to 32 µg/mL | 8 to 32 µg/mL |  | 
16 | NCC1CCC(=CC(=O)N[C@H]2Cc3cccc(C(=O)O)c3OB2O)CC1 (stereo partly drawn) [Example 11, (3R)-3-(2-(4-(aminomethyl)cyclohexylidene)acetamido)-2-hydroxy-3,4-dihydro-2H-benzo[e][1,2]oxaborinine-8-carboxylic acid] | < 4 µg/mL | 8 to 32 µg/mL |  | < 4 µg/mL | 8 to 32 µg/mL | < 4 µg/mL |  | 
17 | CC(C)(O/N=C(\C(=O)N[C@@H]1C(=O)N2C(C(=O)[O-])=C(C[n+]3ccccc3)CS[C@H]12)c1csc(N)n1)C(=O)O [Ceftazidime, reference compound] |  |  |  |  |  |  | > 128 µg/mL | 128 µg/mL
